Laboratory results: patent publication US10835500B2, “Medicament for accelerated wound healing” (Symrise AG, priority 2014, dated 2020)
Entries after “also recorded” stand apart in the source; their conditions may differ.

Tests used:
primary keratinocytes = experiment: Calcium imaging in primary keratinocytes; type: cell-based, human; details: primary keratinocytes; for calcium signals on repeated stimulation: repeated application (500 μM in FIG. 9)
Description: The Sandalore®-induced signal cascade in HaCaT cells and primary keratinocytes was pharmacologically characterized using the calcium imaging technique and specific blockers of signal cascade proteins. An investigation was first conducted in order to determine whether the calcium signals are caused by calcium inflow from the extracellular space. For this purpose, a calcium-free extracellular solution was used with a calcium chelator (EGTA) added. […] In order to investigate the role of adenylyl cyclase, the specific blockers SQ-22536 and MDL-12330A were used. […] The efficacy of the blockers was tested in this case with histamine, which activated the PLC signalling pathway (FIG. 11c).
Effect of the OR2AT4 ligand Sandalore® on intracellular calcium concentration of cultivated keratinocytes. […] 100 μM of ATP was used at the end of each measurement as a positive control stimulus. Right: Quantitative evaluation of calcium signals in 4-time application of Sandalore® (500 μM). Shown are the mean values of the individual applications including standard error. Mann-Whitney U test. *: p<0.05. C) and D): dose-dependent activation of HaCaT cells in calcium imaging experiments. Shown are the mean amplitudes including standard error at various concentrations in the first (C) and fourth (D) Sandalore® application. Number of cells measured: 0.0125 mM (39), 0.025 mM (30), 0.1 mM (46), 0.5 mM (34), 1 mM (63), 2 mM (41), 10 mM (36).
A) Representative calcium imaging traces of HaCaT cells (left) and primary keratinocytes (right) incubated with the gap junction blocker 1-octanol (500 μM) and then repeatedly stimulated with Sandalore® (500 μM, horizontal bars) (blue trace). […] 100 μM of ATP was used at the end of each measurement as a positive control stimulus. Quantitative evaluation of HaCaT cells (B) and primary keratinocytes (C) incubated with the gap junction blockers 1-octanol (500 μM) or carbenoxolone (10 μM) and then repeatedly stimulated with Sandalore® (500 μM) or Lyral (1 mM) in calcium imaging experiments. Shown are the mean values of the individual applications including standard error relative to the control measurements (Sandalore® application without blocker). Mann-Whitney U test. Number of cells measured: Sandalore®+1-octanol (HaCaT (110), keratinocytes (26)); Sandalore®+carbenoxolone: HaCaT (74); Lyral+carbenoxolone: HaCaT (43). ***: p<0.001.
Pharmacological characterization of Sandalore®-induced signal cascade in human keratinocytes. A)-D). Shown are representative calcium imaging traces of primary keratinocytes in the presence of a blocker (blue). The horizontal bars correspond to the application times. 100 μM of ATP was used at the end of each measurement as a positive control stimulus. A) Measurement with calcium-free extracellular solution (+10 mM EGTA). B) Measurement with the adenylyl cyclase blocker SQ-22536 (100 μM). C) Use of the phospholipase-C blocker U-73122 (10 μM). 100 μM of histamine was taken as a positive control. D) Measurement with the CNG channel blocker L-cis-diltiazem (150 μM). E) Overview of pharmacological measurement of HaCaT cells and primary keratinocytes (Kera). The mean amplitudes relative to the control measurements (dashed line) are indicated. MDL-12330A (40 μM). EGTA: calcium-free Ringer (HaCaT n=46, Kera n=52), SQ: SQ-22536 (HaCaT n=60, Kera n=26), MDL: MDL-12330A (HaCaT n=69, Kera n=24), U-73122 (HaCaT n=41, Kera n=25), L-cis-D.: L-cis-diltiazem (HaCaT n=41, Kera n=25). Mann-Whitney U test. ***: p<0.001. F) Determination of the cAMP contents of HaCaT cells after stimulation with Sandalore® by means of cAMP-Glo™ assays. The dots show the mean cAMP content including standard error after 10-minute Sandalore® stimulation (1 μM-10,000 μM). Significance was determined between HaCaT cells stimulated with Sandalore® and stimulated with an equivalent volume of DMSO (0.2%). Kruskal-Wallis Test with multiple comparison; n=3 experiments. *: p<0.05.

IL-1α = experiment: ELISA of secreted IL-1α in supernatant of HaCaT cells; type: cell-based, human; details: 24-hour stimulation, 500 μM
Description: In order to investigate interleukin secretion, quantitative real-time PCR was first carried out. For this purpose, RNA from HaCaT cells was used that had previously been stimulated for 6 or 24 hours with Sandalore®. Detection was carried out with specific primers of various interleukins (IL-1α, IL-1β, IL-6, IL-8) and tumor necrosis factor (TNF▪). […] In order to corroborate the results, an ELISA assay was carried out, in which the secreted interleukins in the supernatant of the cells can be detected by means of an immunological reaction. By means of the assay used, secretion of the interleukins (IL-1α, IL-1β, IL-2, IL-4, IL-6, IL-8, IL-10, IL-12, and IL-17α), TNFα, γ-interferon (IFNγ), and granulocyte macrophage colony-stimulating factor (GMCSF) was investigated.
Investigation of interleukin secretion and phosphorylation of Akt protein kinase after Sandalore® stimulation. A) Investigation of the regulation of interleukins in HaCaT cells by means of qRT-PCR after stimulation with Sandalore® (500 μM) for 6 h and 24 h. 0.1% DMSO was used as a control. GAPDH was used as a reference gene, and the relative expression between untreated and stimulated cells was determined. Mean values including standard error. n=3 experiments. […] The measured optical density of the treated cells at 450 nm was expressed relative to the background. […]

Row | Compound | calcium signals on repeated stimulation (primary keratinocytes) | share of cells repeatedly stimulated (primary keratinocytes; calcium imaging) | calcium signals on repeated stimulation (primary keratinocytes; listed as Sandalore) | secretion of IL-1α relative to the control (0.1% DMSO) (IL-1α)
1 | CC1=CCC(CCC(C)CO)C1(C)C (centres unmarked) [Brahmanol®] | significant sensitization |  |  | 
2 | CC1=CCC(CCC(C)C(C)O)C1(C)C (centres unmarked) [Sandalore®] | significant sensitization; also recorded: induced calcium signals | 80-90% | significant sensitization | significantly increased secretion
